Measurements published in ChEMBL document CHEMBL5465560, “Selectivity Literature for EUbOPEN Chemogenomic Library” (2024).

What was measured:
[1] = biological target: T1, Serine/threonine-protein kinase Sgk1 (Homo sapiens) (UniProt O00141); experiment: Selectivity interaction (Ambit KINOMEscan and KiNATiv profiling in Jurkat cells) EUB0000090b SGK1; type: cell-based; details: at 1 µM
T1 sequence (whole entry): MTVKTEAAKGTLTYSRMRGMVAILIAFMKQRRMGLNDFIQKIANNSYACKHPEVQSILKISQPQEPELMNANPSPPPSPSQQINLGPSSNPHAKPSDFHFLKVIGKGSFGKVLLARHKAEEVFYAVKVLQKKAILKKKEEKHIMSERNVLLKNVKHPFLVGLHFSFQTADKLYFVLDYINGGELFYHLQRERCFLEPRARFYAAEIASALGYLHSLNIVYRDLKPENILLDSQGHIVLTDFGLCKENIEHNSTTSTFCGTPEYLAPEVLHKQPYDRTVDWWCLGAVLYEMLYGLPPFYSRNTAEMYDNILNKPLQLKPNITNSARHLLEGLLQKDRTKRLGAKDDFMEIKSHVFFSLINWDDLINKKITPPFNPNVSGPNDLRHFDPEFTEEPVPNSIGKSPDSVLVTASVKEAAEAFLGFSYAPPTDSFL

[2] = biological target: Serine/threonine-protein kinase OSR1 (Homo sapiens) (UniProt O95747); experiment: Selectivity interaction (KinomeScan (DiscoverX)) EUB0000655a OXSR1; details: at 10 µM
Chain of Serine/threonine-protein kinase OSR1 (Homo sapiens) (O95747 2-527 limits assumed): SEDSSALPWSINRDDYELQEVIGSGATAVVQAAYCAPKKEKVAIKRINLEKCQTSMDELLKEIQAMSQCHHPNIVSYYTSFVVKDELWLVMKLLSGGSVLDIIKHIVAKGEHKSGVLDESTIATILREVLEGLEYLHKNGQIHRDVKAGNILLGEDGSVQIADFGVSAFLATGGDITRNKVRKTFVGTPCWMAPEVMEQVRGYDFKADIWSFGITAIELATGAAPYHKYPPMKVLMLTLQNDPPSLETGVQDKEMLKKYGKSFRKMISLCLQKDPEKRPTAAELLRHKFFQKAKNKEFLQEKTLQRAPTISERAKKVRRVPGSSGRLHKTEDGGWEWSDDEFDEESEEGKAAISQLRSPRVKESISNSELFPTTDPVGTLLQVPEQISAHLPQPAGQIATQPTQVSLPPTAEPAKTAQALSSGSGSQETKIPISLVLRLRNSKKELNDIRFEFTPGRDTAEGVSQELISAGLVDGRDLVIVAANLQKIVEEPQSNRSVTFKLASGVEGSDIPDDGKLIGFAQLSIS

[3] = biological target: Tyrosine-protein kinase SYK (Homo sapiens, UniProt P43405); experiment: Selectivity interaction (KinomeScan (DiscoverX)) EUB0000618a SYK; details: at 10 µM
[4] = biological target: Tyrosine-protein kinase Fes/Fps (Homo sapiens) (UniProt P07332); experiment: Selectivity interaction (KinomeScan (DiscoverX)) EUB0000607a FES; details: at 10 µM
[5] = biological target: T2, Serine/threonine-protein kinase ULK1 (Homo sapiens) (UniProt O75385); experiment: Selectivity interaction (KinomeScan (DiscoverX)) EUB0000595a ULK1; details: at 10 µM
T2 sequence (whole entry): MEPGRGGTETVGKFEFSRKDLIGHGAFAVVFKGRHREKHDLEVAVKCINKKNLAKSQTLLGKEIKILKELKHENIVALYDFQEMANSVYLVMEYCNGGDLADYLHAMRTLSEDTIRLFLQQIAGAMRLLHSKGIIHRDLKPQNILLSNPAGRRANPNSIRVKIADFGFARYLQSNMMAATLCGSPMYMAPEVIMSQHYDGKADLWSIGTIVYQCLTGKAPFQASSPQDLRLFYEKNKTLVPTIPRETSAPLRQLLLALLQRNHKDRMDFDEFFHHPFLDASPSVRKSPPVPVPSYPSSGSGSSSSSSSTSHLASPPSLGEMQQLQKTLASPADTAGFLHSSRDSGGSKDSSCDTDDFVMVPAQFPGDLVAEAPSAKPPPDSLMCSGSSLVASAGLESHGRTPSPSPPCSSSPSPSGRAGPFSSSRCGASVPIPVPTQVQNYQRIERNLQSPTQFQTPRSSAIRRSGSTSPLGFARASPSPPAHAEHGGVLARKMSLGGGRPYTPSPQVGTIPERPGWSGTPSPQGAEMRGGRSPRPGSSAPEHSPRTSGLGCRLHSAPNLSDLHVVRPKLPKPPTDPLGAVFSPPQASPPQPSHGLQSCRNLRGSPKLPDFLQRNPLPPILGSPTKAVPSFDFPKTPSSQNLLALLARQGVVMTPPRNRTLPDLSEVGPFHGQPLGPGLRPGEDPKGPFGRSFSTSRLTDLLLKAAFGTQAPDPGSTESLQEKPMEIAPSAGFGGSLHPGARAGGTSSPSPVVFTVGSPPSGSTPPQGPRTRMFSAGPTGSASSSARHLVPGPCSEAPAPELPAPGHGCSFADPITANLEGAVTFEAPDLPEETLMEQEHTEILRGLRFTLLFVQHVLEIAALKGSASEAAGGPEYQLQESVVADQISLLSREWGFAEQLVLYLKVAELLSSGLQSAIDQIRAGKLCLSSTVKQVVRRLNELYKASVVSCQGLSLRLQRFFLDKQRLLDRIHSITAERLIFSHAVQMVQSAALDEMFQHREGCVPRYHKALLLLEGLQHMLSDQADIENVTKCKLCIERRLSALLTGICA

[6] = biological target: Serine/threonine-protein kinase A-Raf (Homo sapiens) (UniProt P10398); experiment: Selectivity interaction (Kinase panel (KiNativ target engagement assay in Jurkat cells)) EUB0001635a ARAF; type: cell-based; details: Selectivity number of off-targets 0.0, Selectivity number of targets 233.0, Source Knowledge https://www.sciencedirect.com/science/article/pii/S2451945619300674?via%3Dihub, at 1 µM
Chain of Serine/threonine-protein kinase A-Raf (Homo sapiens) (P10398 whole entry): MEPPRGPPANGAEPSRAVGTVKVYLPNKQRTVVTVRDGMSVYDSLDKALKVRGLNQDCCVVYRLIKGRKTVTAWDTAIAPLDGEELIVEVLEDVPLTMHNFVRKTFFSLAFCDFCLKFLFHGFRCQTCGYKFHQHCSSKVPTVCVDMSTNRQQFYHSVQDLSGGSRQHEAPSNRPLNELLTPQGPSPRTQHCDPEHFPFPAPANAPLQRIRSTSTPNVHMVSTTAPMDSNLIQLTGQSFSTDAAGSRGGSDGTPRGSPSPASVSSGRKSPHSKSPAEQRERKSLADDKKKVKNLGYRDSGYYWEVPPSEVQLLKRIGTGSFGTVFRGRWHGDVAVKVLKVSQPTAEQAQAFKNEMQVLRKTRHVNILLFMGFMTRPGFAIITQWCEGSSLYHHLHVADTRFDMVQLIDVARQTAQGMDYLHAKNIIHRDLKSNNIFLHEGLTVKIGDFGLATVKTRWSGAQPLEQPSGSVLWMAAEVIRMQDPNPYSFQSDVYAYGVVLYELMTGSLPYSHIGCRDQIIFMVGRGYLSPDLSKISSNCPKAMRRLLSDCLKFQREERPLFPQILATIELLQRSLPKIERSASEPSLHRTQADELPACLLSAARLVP

[7] = biological target: Cyclin-dependent kinase 7 (Homo sapiens, UniProt P50613); experiment: Selectivity interaction (ActivX KiNativ screen (kinase selectivity in THP-1 cell lysates)) EUB0000639a CDK7; type: subcellular; details: lysate, at 0.2 µM
Chain of Cyclin-dependent kinase 7 (P50613 whole entry): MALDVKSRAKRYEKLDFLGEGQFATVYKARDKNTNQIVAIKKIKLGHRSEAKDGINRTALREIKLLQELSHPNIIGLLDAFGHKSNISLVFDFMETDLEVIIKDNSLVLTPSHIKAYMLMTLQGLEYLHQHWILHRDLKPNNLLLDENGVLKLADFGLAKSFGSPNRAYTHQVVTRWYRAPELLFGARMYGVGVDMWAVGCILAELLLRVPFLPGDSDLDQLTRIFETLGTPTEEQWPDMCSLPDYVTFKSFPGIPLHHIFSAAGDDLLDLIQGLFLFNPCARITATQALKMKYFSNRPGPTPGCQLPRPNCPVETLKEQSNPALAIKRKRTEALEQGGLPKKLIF

[8] = biological target: Mitogen-activated protein kinase 11 (Homo sapiens) (UniProt Q15759); experiment: Selectivity interaction (Kinase panel (Z-LYTE Assay)) EUB0001632a MAPK11; details: at 10 µM
Chain of Mitogen-activated protein kinase 11 (Homo sapiens) (Q15759 whole entry, canonical isoform): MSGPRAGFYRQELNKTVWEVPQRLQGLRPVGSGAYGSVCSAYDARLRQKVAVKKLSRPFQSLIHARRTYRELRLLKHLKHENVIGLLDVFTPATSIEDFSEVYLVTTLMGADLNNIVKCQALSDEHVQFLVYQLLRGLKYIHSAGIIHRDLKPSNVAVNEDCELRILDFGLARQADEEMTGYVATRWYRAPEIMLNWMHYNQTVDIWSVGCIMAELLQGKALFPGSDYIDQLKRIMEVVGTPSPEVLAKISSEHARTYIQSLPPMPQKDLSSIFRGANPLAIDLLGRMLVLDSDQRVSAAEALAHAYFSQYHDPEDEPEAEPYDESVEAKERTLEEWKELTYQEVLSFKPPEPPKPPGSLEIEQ

[9] = biological target: Phosphatidylinositol 4,5-bisphosphate 3-kinase catalytic subunit alpha isoform (Homo sapiens) (UniProt P42336); experiment: (§1) Selectivity interaction (KinomeScan (DiscoverX)) EUB0000695a PIK3CA; details: at 100 nM
[10] = system: Phosphatidylinositol 4,5-bisphosphate 3-kinase catalytic subunit alpha isoform (Homo sapiens), P42336 [C420R]; experiment: as §1; details: at 100 nM
[11] = system: Phosphatidylinositol 4,5-bisphosphate 3-kinase catalytic subunit alpha isoform (Homo sapiens), P42336 [E542K]; experiment: as §1; details: at 100 nM
[12] = system: Phosphatidylinositol 4,5-bisphosphate 3-kinase catalytic subunit alpha isoform (Homo sapiens), P42336 [E545A]; experiment: as §1; details: at 100 nM
[13] = system: Phosphatidylinositol 4,5-bisphosphate 3-kinase catalytic subunit alpha isoform (Homo sapiens), P42336 [E545K]; experiment: as §1; details: at 100 nM
Chain of Phosphatidylinositol 4,5-bisphosphate 3-kinase catalytic subunit alpha isoform (Homo sapiens), P42336 [E545K] (P42336 whole entry E545K, canonical isoform): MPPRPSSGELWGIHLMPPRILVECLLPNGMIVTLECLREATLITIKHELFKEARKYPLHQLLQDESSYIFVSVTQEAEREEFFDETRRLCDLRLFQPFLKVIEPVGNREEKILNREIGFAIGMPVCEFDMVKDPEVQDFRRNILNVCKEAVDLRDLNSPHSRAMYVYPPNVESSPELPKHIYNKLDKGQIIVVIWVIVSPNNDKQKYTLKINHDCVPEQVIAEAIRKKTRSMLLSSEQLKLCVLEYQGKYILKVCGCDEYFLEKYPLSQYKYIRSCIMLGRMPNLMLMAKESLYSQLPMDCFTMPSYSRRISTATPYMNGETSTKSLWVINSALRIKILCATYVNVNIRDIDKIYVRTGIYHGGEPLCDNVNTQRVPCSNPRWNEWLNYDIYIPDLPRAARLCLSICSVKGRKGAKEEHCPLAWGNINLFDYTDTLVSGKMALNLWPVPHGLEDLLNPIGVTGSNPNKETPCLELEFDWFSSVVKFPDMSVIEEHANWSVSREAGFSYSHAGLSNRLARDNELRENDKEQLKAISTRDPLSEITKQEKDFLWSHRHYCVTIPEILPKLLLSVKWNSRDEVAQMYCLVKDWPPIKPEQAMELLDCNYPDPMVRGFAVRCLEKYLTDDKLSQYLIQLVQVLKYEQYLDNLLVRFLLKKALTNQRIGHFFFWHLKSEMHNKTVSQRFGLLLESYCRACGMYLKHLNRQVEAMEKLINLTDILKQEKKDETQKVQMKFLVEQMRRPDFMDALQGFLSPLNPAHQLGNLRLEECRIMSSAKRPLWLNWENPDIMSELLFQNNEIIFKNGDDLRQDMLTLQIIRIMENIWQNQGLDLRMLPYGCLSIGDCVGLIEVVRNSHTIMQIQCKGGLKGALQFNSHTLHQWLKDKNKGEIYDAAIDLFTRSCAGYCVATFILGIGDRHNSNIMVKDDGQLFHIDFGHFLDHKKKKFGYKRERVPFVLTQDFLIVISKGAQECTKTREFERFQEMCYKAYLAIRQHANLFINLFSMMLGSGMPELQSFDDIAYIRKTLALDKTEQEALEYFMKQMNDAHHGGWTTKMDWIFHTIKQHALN

[14] = system: Phosphatidylinositol 4,5-bisphosphate 3-kinase catalytic subunit alpha isoform (Homo sapiens), P42336 [H1047L]; experiment: as §1; details: at 100 nM
[15] = system: Phosphatidylinositol 4,5-bisphosphate 3-kinase catalytic subunit alpha isoform (Homo sapiens), P42336 [H1047Y]; experiment: as §1; details: at 100 nM
[16] = system: Phosphatidylinositol 4,5-bisphosphate 3-kinase catalytic subunit alpha isoform (Homo sapiens), P42336 [I800L]; experiment: as §1; details: at 100 nM
Chain of Phosphatidylinositol 4,5-bisphosphate 3-kinase catalytic subunit alpha isoform (Homo sapiens), P42336 [I800L] (P42336 whole entry I800L, canonical isoform): as the sequence (P42336 whole entry E545K, canonical isoform) above, with K545E, I800L counted along it

[17] = system: Phosphatidylinositol 4,5-bisphosphate 3-kinase catalytic subunit alpha isoform (Homo sapiens), P42336 [M1043I]; experiment: as §1; details: at 100 nM
Chain of Phosphatidylinositol 4,5-bisphosphate 3-kinase catalytic subunit alpha isoform (Homo sapiens), P42336 [M1043I] (P42336 whole entry M1043I, canonical isoform): as the sequence (P42336 whole entry E545K, canonical isoform) above, with K545E, M1043I counted along it

[18] = system: Phosphatidylinositol 4,5-bisphosphate 3-kinase catalytic subunit alpha isoform (Homo sapiens), P42336 [Q546K]; experiment: as §1; details: at 100 nM

`CN(C)C/C=C/C(=O)Nc1ccc(C(=O)N2CCCC(Nc3ncc(Cl)c(-c4c[nH]c5ccccc45)n3)C2)cc1` (stereo not drawn) showed a % of control [1] of 99%.

In the case of `CN(C)CCOc1ccc(-c2nc(-c3ccncc3)c(-c3ccc4c(c3)CC/C4=N\O)[nH]2)cc1`, the % of control [2] was 100%.

For `O[C@H]1CC[C@H](Nc2ncc3nc(Nc4c(F)cc(F)cc4F)n([C@H]4CCOC4)c3n2)CC1`, the % of control [3] was 100%.

`CNC(=O)Nc1ccc(-c2nc(N3CC4CCC(C3)O4)c3cnn(C4CCC5(CC4)OCCO5)c3n2)cc1` showed a % of control [4] of 100%.

`COCC(=O)NC/C=C/c1ccc2ncnc(Nc3ccc(Oc4ccc(C)nc4)c(C)c3)c2c1` [CP-724714] gave a % of control [5] of 47%.

`C=CC(=O)Nc1ccc(C(=O)Nc2[nH]nc3c2CN(C(=O)N[C@H](CN(C)C)c2ccccc2)C3(C)C)cc1` gave a % of engagement [6] of -2.2%.

For `CC[C@@H]1[C@H](F)C(=O)N[C@@H]1COc1nccc2cc(C(N)=O)c(OC)cc12` [ZIMLOVISERTIB], the % of inhibition [7] was -4.5%.

Compound `Cn1cc(-n2cnc3c(NCc4nc5cc(Cl)c(Cl)cc5[nH]4)nc(N4CCOCC4)nc32)cn1` has a % of control [8] of 1.54%.

For `Cc1cc(F)c(C(=O)Nc2cccc(-c3nncn3C(C)C)n2)cc1-n1cnc(C2CC2)c1`, the % of control [9] was 100%, the % of control [10] was 100% and the % of control [11] was 100%. The % of control [12] was 100%, the % of control [13] was 99% and the % of control [14] was 100%. It also gave a % of control [15] of 100%, a % of control [16] of 89% and a % of control [17] of 93%. For the same compound, the % of control [18] was 100%.
